Measured values taken from patent US12185723B2, “Herbicidally active 3-phenylisoxazoline-5-carboxamides of s-containing cyclopentenylcarboxylic esters” (Bayer Aktiengesellschaft, priority 2019, dated 2025).

Tests used:
Type in all cases: in vivo
Echinochloa crus-galli = assay: Post-emergence herbicidal action against ECHCG; details: visual rating about 3 weeks after treatment
Protocol: (§1) Post-Emergence Herbicidal Action Against Harmful Plants and Crop Plant Compatibility Seeds of monocotyledonous and dicotyledonous weeds and crop plants are placed in sandy loam in plastic or wood-fibre pots, covered with soil and cultivated in a greenhouse under controlled growth conditions. 2 to 3 weeks after sowing, the test plants are treated at the one-leaf stage. The compounds of the invention, formulated in the form of wettable powders (WP) or as emulsion concentrates (EC), are then sprayed onto the green parts of the plants as aqueous suspension or emulsion with addition of 0.5% additive at a water application rate of 600 l/ha (converted). After the test plants have been kept in the greenhouse under optimum growth conditions for about 3 weeks, the activity of the preparations is rated visually in comparison to untreated controls. For example, 100% activity=the plants have died, 0% activity=like control plants. [table]

Lolium rigidum = assay: Post-emergence herbicidal action against LOLRI; details: visual rating about 3 weeks after treatment
Protocol: as §1

Alopecurus myosuroides = assay: Post-emergence herbicidal action against ALOMY; details: visual rating about 3 weeks after treatment
Protocol: as §1

Hordeum murinum = assay: Post-emergence herbicidal action against HORMU
Protocol: as §1

Avena fatua = assay: Post-emergence herbicidal action against AVEFA; details: visual rating about 3 weeks after treatment
Protocol: as §1

Veronica persica = assay: Post-emergence herbicidal action against VERPE
Protocol: as §1

Setaria viridis = assay: Post-emergence herbicidal action against SETVI; details: visual rating about 3 weeks after treatment
Protocol: as §1

Stellaria media = assay: Post-emergence herbicidal action against STEME; details: 80 g a.i./ha
Protocol: as §1

Pharbitis purpurea = assay: Post-emergence herbicidal action against PHBPU; details: 20 g a.i./ha
Protocol: as §1

Amaranthus retroflexus = assay: Post-emergence herbicidal action against AMARE; details: 20 g a.i./ha
Protocol: as §1

DIGSA = assay: Post-emergence herbicidal action against DIGSA; details: 20 g a.i./ha, visual rating about 3 weeks after treatment
Protocol: as §1, with “plants.” for “plants. [table]”

Polygonum convolvulus = assay: Post-emergence herbicidal action against POLCO; details: 20 g a.i./ha
Protocol: as §1

Abutilon theophrasti = assay: Post-emergence herbicidal action against ABUTH; details: 20 g a.i./ha, visual rating about 3 weeks after treatment
Protocol: as §1

SMILES | Herbicidal action against [%] ECHCG (Echinochloa crus-galli; 80 g a.i./ha) [%] | Herbicidal action against [%] LOLRI (Lolium rigidum; 80 g a.i./ha) [%] | Herbicidal action against [%] ALOMY (Alopecurus myosuroides; 80 g a.i./ha) [%] | Herbicidal action against [%] HORMU (Hordeum murinum; 20 g a.i./ha) [%] | Herbicidal action against [%] HORMU (Hordeum murinum; 80 g a.i./ha) [%] | Herbicidal action against [%] AVEFA (Avena fatua; 80 g a.i./ha) [%] | Herbicidal action against [%] VERPE (Veronica persica; 20 g a.i./ha) [%] | Herbicidal action against [%] VERPE (Veronica persica; 80 g a.i./ha) [%] | Herbicidal action against [%] SETVI (Setaria viridis; 80 g a.i./ha) [%] | Herbicidal action against [%] STEME (Stellaria media) [%] | Herbicidal action against [%] ECHCG (Echinochloa crus-galli; 20 g a.i./ha) [%] | Herbicidal action against [%] PHBPU (Pharbitis purpurea) [%] | Herbicidal action against [%] LOLRI (Lolium rigidum; 20 g a.i./ha) [%] | Herbicidal action against [%] ALOMY (Alopecurus myosuroides; 20 g a.i./ha) [%] | Herbicidal action against [%] AVEFA (Avena fatua; 20 g a.i./ha) [%] | Herbicidal action against [%] AMARE (Amaranthus retroflexus) [%] | Herbicidal action against [%] DIGSA (DIGSA) [%] | Herbicidal action against [%] POLCO (Polygonum convolvulus) [%] | Herbicidal action against [%] SETVI (Setaria viridis; 20 g a.i./ha) [%] | Herbicidal action against [%] ABUTH (Abutilon theophrasti) [%]
C=CC1(C(=O)NC2C=CC(C(=O)OCCSC)C2)CC(c2cc(C)cc(C)c2)=NO1 (mixture of isomers) [Example I-45] | 80 | 90 | 90 | 80 | 80 | 80 | 80 | 80 | 80 | 90 | – | – | – | – | – | – | – | – | – | –
CCS(=O)(=O)CCOC(=O)C1C=CC(NC(=O)C2(C)CC(c3cc(F)cc(F)c3)=NO2)C1 (centres unmarked) [Example I-01] | – | – | – | – | – | – | 80 | – | – | – | 90 | 80 | 100 | 90 | 90 | 90 | 90 | 90 | 90 | 90
CN(C)C(=O)SCCOC(=O)C1C=CC(NC(=O)C2(C)CC(c3cc(F)cc(F)c3)=NO2)C1 (centres unmarked) [Example I-04] | – | – | – | – | – | – | 80 | – | – | – | 80 | 80 | – | 100 | 80 | – | 80 | – | 80 | 80
CC1(C(=O)NC2C=CC(C(=O)OCCSCc3ccc(F)cc3)C2)CC(c2cc(F)cc(F)c2)=NO1 (centres unmarked) [Example I-09] | – | – | – | – | – | – | 90 | – | – | – | 90 | 80 | 90 | 90 | 90 | 90 | 90 | 80 | 90 | 80
CC1(C(=O)NC2C=CC(C(=O)OCCS(C)(=O)=O)C2)CC(c2cc(F)cc(F)c2)=NO1 (centres unmarked) [Example I-14] | – | – | – | – | – | – | 90 | – | – | – | 80 | 80 | 90 | 90 | 80 | 90 | 90 | – | 90 | –
COC1(C(=O)NC2C=CC(C(=O)OCCSC(F)(F)F)C2)CC(c2cc(F)cc(F)c2)=NO1 (centres unmarked) [Example I-21] | – | – | – | – | – | – | 90 | – | – | – | 90 | – | 100 | 90 | 80 | – | 80 | 80 | 80 | 80
CCSCCOC(=O)C1C=CC(NC(=O)C2(OC)CC(c3cc(F)cc(F)c3)=NO2)C1 (centres unmarked) [Example I-22] | – | – | – | – | – | – | 90 | – | – | – | 80 | 80 | 90 | 90 | 90 | 80 | 90 | – | 90 | 80
